Measurements taken from patent US11780826B2 (Amgen Inc., priority 2017, dated 2023).

What follows are compounds tested on Bovine cardiac myofibrils (assay: In vitro model of dose-dependent myofibril ATPase modulation (AC1.4, pyruvate kinase/lactate dehydrogenase-coupled ATPase assay at pCa25)). Conditions: concentration at which ATPase activity was 1.4-fold higher than the bottom of the dose curve, mean of a minimum of two independent tests.
Format: biochemical
Procedure: In vitro Model of Dose-Dependent Myofibril ATPase Modulation: Dose responses were measured using a calcium-buffered, pyruvate kinase and lactate dehydrogenase-coupled ATPase assay containing the following reagents (concentrations expressed are final assay concentrations): Potassium PIPES (12 mM), MgCl2 (2 mM), ATP (1 mM), DTT (1 mM), BSA (0.1 mg/mi), NADH (0.5 mM), PEP (1.5 mM), pyruvate kinase (4 U/ml), lactate dehydrogenase (8 U/ml), and antifoam (90 ppm). The pH was adjusted to 6.80 at 22° C. by addition of potassium hydroxide.
Bovine cardiac myofibrils were obtained by homogenizing the appropriate tissue in the presence of detergent. Such treatment removes membranes and majority of soluble cytoplasmic proteins but leaves intact cardiac sarcomeric acto-myosin apparatus. Concentrations of myofibrils were adjusted to achieve the necessary rate of ATP hydrolysis (typically 0.25-1.0 mg/ml).
Assays were performed by first preparing a dilution series of test chemical entity, each with an assay mixture containing potassium Pipes, MgCl2, BSA, DTT, pyruvate kinase, lactate dehydrogenase, myofibrils, antifoam, EGTA, CaCl2, and water. The assay was started by adding an equal volume of solution containing potassium Pipes, MgCl2, BSA, DTT, ATP, NADH, PEP, antifoam, and water. ATP hydrolysis was monitored by absorbance at 340 nm. The resulting dose response curve was fit by the 4 parameter equation y=Bottom+((Top−Bottom)/(1+((EC50/X)^Hill))). […] AC1.4 values reported in the table below are mean values based on a minimum of two independent tests.
For CCNc1ccc(S(C)(=O)=O)cc1C(=O)N1[C@@H](C(=O)N[C@@H](c2ccc(C(F)(F)F)cc2F)C2CC2)C[C@H]2C[C@H]21 [Example 50, (1R,3R,5R)-N-((R)-cyclopropyl(2-fluoro-4-(trifluoromethyl)phenyl)methyl)-2-(2-(ethylamino)-5-(methylsulfonyl)benzoyl)-2-azabicyclo[3.1.0]hexane-3-carboxamide], the AC1.4 was 0.0546 µM.
Work on N#CC1CN(S(=O)(=O)N2CCC[C@H](C(=O)N3CCC[C@@H]3C(=O)NCc3ccc(Cl)c(F)c3)C2)C1 [Example 51, N-(4-chloro-3-fluorobenzyl)-1-(((3S)-1-((3-cyano-1-azetidinyl)sulfonyl)-3-piperidinyl)carbonyl)-D-prolinamide] yielded an AC1.4 of 0.0553 µM.
Work on N#CC1CN(S(=O)(=O)c2cccc(C(=O)N3CCC[C@@H]3C(=O)N[C@@H](c3ccc(S(F)(F)(F)(F)F)cc3)C3CC3)c2)C1 [Example 52, 1-(3-((3-cyano-1-azetidinyl)sulfonyl)benzoyl)-N-((R)-cyclopropyl(4-(pentafluoro-lambda~6~-sulfanyl)phenyl)methyl)-D-prolinamide] yielded an AC1.4 of 0.05535 µM.
N#CC1CN(S(=O)(=O)c2cc(F)cc(C(=O)N3CCC[C@@H]3C(=O)NCc3ccc(C(F)(F)F)cc3)c2)C1 [Example 53, 1-((3-((3-cyano-1-azetidinyl)sulfonyl)-5-fluorophenyl)carbonyl)-N-(4-(trifluoromethyl)benzyl)-D-prolinamide] gave an AC1.4 of 0.0574 µM.
With C[C@@H](NC(=O)[C@H]1COCCN1C(=O)[C@H]1CCCN(S(=O)(=O)N2CC(C#N)C2)C1)c1ccc(C(F)(F)F)cc1F [Example 54, (3R)-4-(((3S)-1-((3-cyano-1-azetidinyl)sulfonyl)-3-piperidinyl)carbonyl)-N-((1R)-1-(2-fluoro-4-(trifluoromethyl)phenyl)ethyl)-3-morpholinecarboxamide] the AC1.4 was 0.0583 µM.
N#CC1CN(S(=O)(=O)c2cccc(C(=O)N3CCC[C@@H]3C(=O)NCc3cc(F)cc(F)c3)c2)C1 [Example 55, 1-(3-((3-cyano-1-azetidinyl)sulfonyl)benzoyl)-N-(3,5-difluorobenzyl)-D-prolinamide] gave an AC1.4 of 0.0606 µM.
N#CC1CN(S(=O)(=O)N2CCC[C@H](C(=O)N3C[C@@H](F)C[C@@H]3C(=O)NCc3ccc(C(F)(F)F)cc3)C2)C1 [Example 56, (4S)-1-(((3S)-1-((3-cyano-1-azetidinyl)sulfonyl)-3-piperidinyl)carbonyl)-4-fluoro-N-(4-(trifluoromethyl)benzyl)-D-prolinamide] gave an AC1.4 of 0.06215 µM.
N#CC1CN(S(=O)(=O)c2cccc(C(=O)N3CCC[C@@H]3C(=O)N[C@H](CO)c3ccc(Cl)cc3)c2)C1 [Example 57, N-((1S)-1-(4-chlorophenyl)-2-hydroxyethyl)-1-(3-((3-cyano-1-azetidinyl)sulfonyl)benzoyl)-D-prolinamide] gave an AC1.4 of 0.06485 µM.
CN(C)S(=O)(=O)c1cccc(C(=O)N2CCC[C@@H]2C(=O)N[C@@H](c2ccc(C(F)(F)F)cc2F)C2CC2)c1 [Example 58, N-((R)-cyclopropyl(2-fluoro-4-(trifluoromethyl)phenyl)methyl)-1-(3-(dimethylsulfamoyl)benzoyl)-D-prolinamide] gave an AC1.4 of 0.06485 µM.
In the case of N#C[C@H]1C[C@@H](S(=O)(=O)N2CCC[C@H](C(=O)N3CCC[C@@H]3C(=O)NCc3ccc(C(F)(F)F)cc3)C2)C1 [Example 59, 1-(((3S)-1-((cis-3-cyanocyclobutyl)sulfonyl)-3-piperidinyl)carbonyl)-N-(4-(trifluoromethyl)benzyl)-D-prolinamide], the AC1.4 is reported as 0.06495 µM.
For Cc1cc(C(F)(F)F)ccc1CNC(=O)[C@H]1CCCN1C(=O)[C@H]1CCCN(S(=O)(=O)N2CC(C#N)C2)C1 [Example 60, 1-(((3S)-1-((3-cyano-1-azetidinyl)sulfonyl)-3-piperidinyl)carbonyl)-N-(2-methyl-4-(trifluoromethyl)benzyl)-D-prolinamide], the AC1.4 was 0.0657 µM.
CC(C)Nc1ccc(S(C)(=O)=O)cc1C(=O)N1[C@@H](C(=O)N[C@@H](c2ccc(C(F)(F)F)cc2F)C2CC2)C[C@H]2C[C@H]21 [Example 61, (1R,3R,5R)-N-((R)-cyclopropyl(2-fluoro-4-(trifluoromethyl)phenyl)methyl)-2-(5-(methylsulfonyl)-2-(2-propanylamino)benzoyl)-2-azabicyclo[3.1.0]hexane-3-carboxamide] was tested, and the AC1.4 was 0.0687 µM.
With N#CC1CN(S(=O)(=O)N2CCC[C@H](C(=O)N3CCC[C@@H]3C(=O)NCc3ccc(C(F)(F)F)cc3F)C2)C1 [Example 62, 1-(((3S)-1-((3-cyano-1-azetidinyl)sulfonyl)-3-piperidinyl)carbonyl)-N-(2-fluoro-4-(trifluoromethyl)benzyl)-D-prolinamide] the AC1.4 was 0.07198 µM.
For N#CC1CN(S(=O)(=O)N2CCC[C@H](C(=O)N3CCC[C@@H]3C(=O)NCc3ccc(C(F)(F)F)cc3Cl)C2)C1 [Example 63, N-(2-chloro-4-(trifluoromethyl)benzyl)-1-(((3S)-1-((3-cyano-1-azetidinyl)sulfonyl)-3-piperidinyl)carbonyl)-D-prolinamide], the AC1.4 was 0.07385 µM.
N#CC1CN(S(=O)(=O)c2cccc(C(=O)N3CCC[C@@H]3C(=O)NCc3ccc(Cl)c(F)c3)c2)C1 [Example 64, N-(4-chloro-3-fluorobenzyl)-1-((3-((3-cyano-1-azetidinyl)sulfonyl)phenyl)carbonyl)-D-prolinamide] gave an AC1.4 of 0.0744 µM.
Compound N#CC1CN(S(=O)(=O)N2CCC[C@H](C(=O)N3CCCC[C@@H]3C(=O)NCc3ccc(C(F)(F)F)cc3)C2)C1 [Example 65, (2R)-1-(((3S)-1-((3-cyano-1-azetidinyl)sulfonyl)-3-piperidinyl)carbonyl)-N-(4-(trifluoromethyl)benzyl)-2-piperidinecarboxamide] has an AC1.4 of 0.0748 µM.
With CCS(=O)(=O)c1cccc(C(=O)N2[C@@H](C(=O)N[C@@H](c3cc(F)c(Cl)cc3F)C3COC3)C[C@H]3C[C@H]32)c1 [Example 66, (1R,3R,5R)-N-((R)-(4-chloro-2,5-difluorophenyl)(3-oxetanyl)methyl)-2-(3-(ethylsulfonyl)benzoyl)-2-azabicyclo[3.1.0]hexane-3-carboxamide] the AC1.4 was 0.0766 µM.
CC(C)C[C@@H](NC(=O)[C@H]1CCCN1C(=O)[C@H]1CCCN(S(=O)(=O)N2CC(C#N)C2)C1)c1ccc(C(F)(F)F)cc1 [Example 68, 1-(((3S)-1-((3-cyano-1-azetidinyl)sulfonyl)-3-piperidinyl)carbonyl)-N-((1R)-3-methyl-1-(4-(trifluoromethyl)phenyl)butyl)-D-prolinamide] showed an AC1.4 of 0.0784 µM.
In the case of C[C@@H](NC(=O)[C@H]1CCCN1C(=O)[C@H]1CCCN(S(=O)(=O)N2CC(C#N)C2)C1)c1ccc(Cl)c(F)c1 [Example 69, N-((1R)-1-(4-chloro-3-fluorophenyl)ethyl)-1-(((3S)-1-((3-cyano-1-azetidinyl)sulfonyl)-3-piperidinyl)carbonyl)-D-prolinamide], the AC1.4 is reported as 0.08835 µM.
Compound N#CC1CN(S(=O)(=O)N2CCC[C@H](C(=O)N3CCC[C@@H]3C(=O)NCc3ccc(Cl)cc3F)C2)C1 [Example 70, N-(4-chloro-2-fluorobenzyl)-1-(((3S)-1-((3-cyano-1-azetidinyl)sulfonyl)-3-piperidinyl)carbonyl)-D-prolinamide] has an AC1.4 of 0.08855 µM.
